From patent US12447198B2, “Peptides and fragments for treating diabetes and associated metabolic diseases” (Betavive Ltd., priority 2021, dated 2025)

Assays:
[1] = Blood level of total and free IGF-2 after 40 μg intraperitoneal injection (ELISA); assay type: in vivo, mouse; conditions: 240 minute time frame
From the text: Without being bound by this theory, it is believed that IGF-2 binding proteins may initially inactivate the biological activity of free IGF-2. And over time, the bond between IGF-2 and the binding protein may be released, increasing the bioavailability of IGF-2 and leading to a longer term effective treatment.

[2] = tested on: STZ-treated mice; assay: Intraperitoneal glucose tolerance test 50 days post-treatment; assay type: in vivo, mouse
Procedure: In this experiment, four STZ-treated mice were treated with 12,000 μg/kg/day of IGF-2 (four injections of 3000 μg/kg/day) 5 days and two mice were treated for 10 days. A glucose tolerance test was performed 50 days post-treatment with IGF-2 by challenging the treated mice with a 2 grams/kg dose of glucose and determining the blood glucose level over a 180 minute time course. The blood glucose curves of the treated mice were compared to results for a saline control, and normal (nondiabetic) obese and normal (nondiabetic) lean mice based on published literature (Jorgensen et al., J. Am Assoc. Lab. Animal Sci 2017 56(1): 95-97).

[3] = tested on: db/db mice; assay: 14 hour fasting blood glucose in db/db mice treated with IGF-2; assay type: in vivo, mouse
Procedure: db/db mice are bred to have a leptin deficiency, increasing susceptibility of the mice to obesity, insulin resistance, and type 2 diabetes (T2D).
In this experiment, one group of db/db mice was injected with 3000 μg/kg/day of IGF-2 for 68 days, a second group of db/db mice was injected with 12000 μg/kg/day of IGF-2 for 66 days, and a third group of db/db mice was injected with saline once a day for 68 days.
In one experiment (left panel), one group of db/db mice was injected with a daily dose of 12000 μg/kg of IGF-2 divided in two injections per day for 70 days, while another group of db/db mice was injected with saline. […] In another experiment (right panel), one group of db/db mice was injected with a daily dose of 12000 μg/kg of IGF-2 divided in two injections per day for 35 days, while another group of db/db mice was injected with saline.
In one exemplary experiment, db/db mice were treated with a 12,000 μg/kg daily dose for 70 days with 70 days of follow up (during which IGF-2 was not administered). All the treated mice maintained normoglycemia for at least 50 days following treatment. In another exemplary experiment, db/db mice were treated with a 12,000 μg/kg daily dose for 35 days with 35 days of follow up (during which IGF-2 was not administered). All the treated mice maintained normoglycemia for 35 days following treatment.

[4] = tested on: db/db mice; assay: Serum insulin in db/db mice after long-term IGF-2 treatment; assay type: in vivo, mouse; conditions: 12,000 μg/kg daily dose for 68 days, measured 6.5 weeks after the end of treatment
Procedure: In this experiment, one group of db/db mice (labeled FA X1) was injected with 3000 μg/kg of IGF-2 once a day for 68 days, a second group of db/db mice (labeled FA X4) was injected with a daily dose of 12000 μg/kg of IGF-2 divided in two injections per day for 68 days, and a third group of db/db mice was injected with saline. Serum insulin levels were measured 6.5 weeks after the end of the 68 day treatment. Treatment with the 12,000 μg/kg daily dose increased serum insulin levels by about 50% with respect to the control.

[5] = tested on: db/db mice; assay: Histopathology and immunohistochemical staining of pancreas islet cells in db/db mice; assay type: in vivo, mouse; conditions: sacrificed 70 days after the end of treatment
Procedure: FIG. 27 provides results of histopathology and immunohistochemical studies showing the number of pancreas islet cells that test positive for insulin (left panel) and glucagon (right panel) in db/db mice. In this experiment, one group of db/db mice was injected with 12000 μg/kg of IGF-2 on each of 70 consecutive days, a second group of db/db mice was injected with saline, and a third group of db/db mice was a naïve control group. The mice were sacrificed for pathology 70 days after the end of the initial 70 day treatment.
In this experiment, one group of db/db mice (labeled X4) was injected with 12000 μg/kg of IGF-2 on each of 70 consecutive days, a second group of db/db mice (labeled X1) was injected with 3000 μg/kg of IGF-2 on each of 70 consecutive days, and a third group of db/db mice (labeled control) was injected with saline. The mice were sacrificed for pathology 70 days after the end of the initial 70 day treatment. […] The control panels show a positive stain for insulin, which increases in intensity in the 3000 μg/kg/day mice, and increases again in intensity in the 12,000 μg/kg/day mice.

[6] = tested on: NOD mice; assay: Incidence of spontaneous autoimmune type 1 diabetes / normoglycemia in NOD mice; assay type: in vivo, mouse
Procedure: Non-Obese Diabetic (NOD) mice are a polygenic model for spontaneous autoimmune type 1 diabetes (T1D). NOD mice have an elevated risk for development of autoimmune type 1 diabetes. Thus, NOD mice were used to determine whether treatment IGF-2 reduces spontaneous development of type 1 diabetes.
In this experiment, one group of NOD mice (right panel) was injected with 3000 μg/kg of IGF-2 on each of 76 consecutive days, and a second group of NOD mice (left panel) was injected with saline. […] More specifically, at the end of the 76 days of treatment, only two of the treated mice had developed high glucose levels.
FIG. 30A depicts how many NOD mice have developed autoimmune type I diabetes during an initial 66 days of treatment with IGF-2, and at various intervals post-treatment. In this experiment, one group of NOD mice was injected with 3000 μg/kg of IGF-2 on each of 66 consecutive days, and a second group of NOD mice was injected with saline.
In one exemplary experiment, NOD mice were treated with a 3000 μg/kg daily doses of IGF-2 for 150 days. ⅘ of the treated mice maintained normoglycemia compared to ¼ of the control mice. In another exemplary experiment, NOD mice were treated with a 3000 μg/kg daily dose of IGF-2 for 75 days with follow-up glucose measurements taken for an additional 90 days (during which IGF-2 was not administered). ⅝ of the treated mice maintained normoglycemia compared to 2/11 of the control mice.

[7] = tested on: β-MIN6 cells; assay: Cell count (cell proliferation) of β-MIN6 cells; assay type: cell-based, mouse; conditions: 5 nM, 20 nM, 80 nM, 1 week treatment
From the text: β-MIN6 cells serve as an in vitro model of mouse pancreatic islets. β-MIN6 cells were used as an in vitro model to measure the effects of treatment with IGF-2.

In the case of insulin-like growth factor 2 [IGF-2], the “peak free IGF-2 in the blood” value [1] is reported as 1 µg, the “peak total concentration of IGF-2 total in the blood” value [1] is reported as “about 16 μg” and the “number of IGF-2-treated mice permanently cured” value ([2]; 12,000 μg/kg/day, four mice 5 days and two mice 10 days) is reported as “Five”. For the same substance, the “glucose levels in the glucose tolerance test” value ([2]; 2 grams/kg glucose, 50 days post-treatment, Mouse O1, not permanently cured) was “higher than the normal obese mouse”, the “response to the glucose tolerance test (blood glucose over 180 minutes)” value ([2]; 2 grams/kg glucose, 50 days post-treatment, the five permanently cured mice) was “fell between the glucose tolerance results from the literature for non-diabetic obese mice and non-diabetic lean mice” and the “time following treatment for which all the treated mice maintained normoglycemia” value ([3]; 12,000 μg/kg daily dose for 35 days, 35 days of follow up) was 35 days. The “time following treatment for which all the treated mice maintained normoglycemia” value ([3]; 12,000 μg/kg daily dose for 70 days, 70 days of follow up) was “at least 50 days”, the “14 hour fasting blood glucose levels” value ([3]; FIG. 25 left panel, 12000 μg/kg daily in two injections per day for 70 days) was “reduced blood glucose levels (14 hour fasting blood glucose levels) to a normal range” and the “14 hour fasting blood glucose levels” value ([3]; FIG. 25 right panel, 12000 μg/kg daily in two injections per day for 35 days) was “reduced blood glucose levels (14 hour fasting blood glucose levels) to a normal range”. For the same substance, the “14 hour fasting blood glucose levels” value ([3]; first group of db/db mice (FIG. 23), 3000 μg/kg/day for 68 days) was “reduced blood glucose levels (14 hour fasting blood glucose levels) to a normal range”, the “14 hour fasting blood glucose levels” value ([3]; first group of db/db mice (FIG. 23), 12000 μg/kg/day for 66 days) was “reduced blood glucose levels (14 hour fasting blood glucose levels) to a normal range” and the “14 hour fasting blood glucose levels” value ([3]; second group of db/db mice (FIG. 24), 12,000 μg/kg/day, 68 day treatment period) was “reduced blood glucose levels (14 hour fasting blood glucose levels) to a normal range”. The “increase of serum insulin levels with respect to the control” value [4] was “about 50%”, the “increase in the number of insulin-positive cells” value ([5]; 12000 μg/kg on each of 70 consecutive days) was “more than 50%” and the “insulin positive cells (immunohistochemical staining)” value ([5]; 3000 and 12000 μg/kg on each of 70 consecutive days vs saline) was “increase in insulin positive cells in a dose-dependent manner”. For the same substance, the “fraction of the treated mice that maintained normoglycemia” value ([6]; 3000 μg/kg daily dose for 75 days, follow-up for an additional 90 days, control 2/11) was “⅝”, the “fraction of the treated mice that maintained normoglycemia” value ([6]; 3000 μg/kg daily doses for 150 days, control ¼) was “⅘” and the “incidence of spontaneous autoimmune type 1 diabetes” value ([6]; 3000 μg/kg on each of 66 consecutive days and post-treatment, vs saline control) was “significantly reduced”. For the same substance, the “incidence of spontaneous autoimmune attack” value ([6]; 3000 μg/kg on each of 76 consecutive days vs saline) was “reduced dramatically”, the “number of treated mice that had developed high glucose levels” value ([6]; 3000 μg/kg, at the end of the 76 days of treatment) was “two” and the “cell count (cell proliferation)” value [7] was “increases cell proliferation in a dose-dependent manner”.
